Legend:
[1] = target: T1, Epidermal growth factor receptor (Homo sapiens, UniProt P00533); experiment: Inhibition of EGFR deletion/T790M mutant in human PC9-DRH cells assessed as inhibition of phosphorylation at Y1068 after 2 hrs by sandwich ELISA method; type: cell-based
Target sequence in this assay (P00533 25-1210 limits assumed, stated change not applied): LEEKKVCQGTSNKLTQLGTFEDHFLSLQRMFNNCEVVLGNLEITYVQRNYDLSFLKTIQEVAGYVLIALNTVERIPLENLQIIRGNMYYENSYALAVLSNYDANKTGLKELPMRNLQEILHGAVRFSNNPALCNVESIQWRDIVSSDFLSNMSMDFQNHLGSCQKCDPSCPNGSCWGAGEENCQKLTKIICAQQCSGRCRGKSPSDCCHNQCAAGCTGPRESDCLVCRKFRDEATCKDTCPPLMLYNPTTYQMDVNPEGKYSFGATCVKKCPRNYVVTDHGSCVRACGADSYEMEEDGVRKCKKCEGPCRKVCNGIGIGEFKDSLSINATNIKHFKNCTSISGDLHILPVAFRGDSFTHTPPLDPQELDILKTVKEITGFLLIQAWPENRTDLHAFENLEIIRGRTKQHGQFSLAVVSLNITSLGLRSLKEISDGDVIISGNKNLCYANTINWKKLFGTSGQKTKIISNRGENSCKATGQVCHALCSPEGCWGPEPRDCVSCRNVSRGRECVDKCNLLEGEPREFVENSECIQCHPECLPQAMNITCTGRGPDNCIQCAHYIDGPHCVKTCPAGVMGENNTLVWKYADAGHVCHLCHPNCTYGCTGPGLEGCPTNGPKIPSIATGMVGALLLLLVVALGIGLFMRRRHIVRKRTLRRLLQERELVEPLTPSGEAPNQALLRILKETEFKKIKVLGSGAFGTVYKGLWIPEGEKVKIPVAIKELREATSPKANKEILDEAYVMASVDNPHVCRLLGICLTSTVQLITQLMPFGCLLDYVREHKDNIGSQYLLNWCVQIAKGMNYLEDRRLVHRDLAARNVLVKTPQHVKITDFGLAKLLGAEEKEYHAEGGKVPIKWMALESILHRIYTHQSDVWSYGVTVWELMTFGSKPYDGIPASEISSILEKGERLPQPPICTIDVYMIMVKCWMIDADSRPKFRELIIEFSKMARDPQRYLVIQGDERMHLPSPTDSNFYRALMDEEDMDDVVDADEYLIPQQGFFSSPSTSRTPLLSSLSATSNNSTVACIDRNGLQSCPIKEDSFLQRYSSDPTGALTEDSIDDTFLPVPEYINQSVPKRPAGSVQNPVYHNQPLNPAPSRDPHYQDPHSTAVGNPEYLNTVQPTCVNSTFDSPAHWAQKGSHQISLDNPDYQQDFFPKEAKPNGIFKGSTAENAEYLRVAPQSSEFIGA

[2] = target: Epidermal growth factor receptor (Homo sapiens, UniProt P00533, E746-A750DEL); experiment: Inhibition of EGFR E746-A750 deletion mutant in human PC9 cells assessed as inhibition of phosphorylation at Y1068 after 2 hrs by sandwich ELISA method; type: cell-based, PC-9
Sequence of Epidermal growth factor receptor (Homo sapiens, UniProt P00533, E746-A750DEL) (P00533 whole entry E746-A750del, looked up): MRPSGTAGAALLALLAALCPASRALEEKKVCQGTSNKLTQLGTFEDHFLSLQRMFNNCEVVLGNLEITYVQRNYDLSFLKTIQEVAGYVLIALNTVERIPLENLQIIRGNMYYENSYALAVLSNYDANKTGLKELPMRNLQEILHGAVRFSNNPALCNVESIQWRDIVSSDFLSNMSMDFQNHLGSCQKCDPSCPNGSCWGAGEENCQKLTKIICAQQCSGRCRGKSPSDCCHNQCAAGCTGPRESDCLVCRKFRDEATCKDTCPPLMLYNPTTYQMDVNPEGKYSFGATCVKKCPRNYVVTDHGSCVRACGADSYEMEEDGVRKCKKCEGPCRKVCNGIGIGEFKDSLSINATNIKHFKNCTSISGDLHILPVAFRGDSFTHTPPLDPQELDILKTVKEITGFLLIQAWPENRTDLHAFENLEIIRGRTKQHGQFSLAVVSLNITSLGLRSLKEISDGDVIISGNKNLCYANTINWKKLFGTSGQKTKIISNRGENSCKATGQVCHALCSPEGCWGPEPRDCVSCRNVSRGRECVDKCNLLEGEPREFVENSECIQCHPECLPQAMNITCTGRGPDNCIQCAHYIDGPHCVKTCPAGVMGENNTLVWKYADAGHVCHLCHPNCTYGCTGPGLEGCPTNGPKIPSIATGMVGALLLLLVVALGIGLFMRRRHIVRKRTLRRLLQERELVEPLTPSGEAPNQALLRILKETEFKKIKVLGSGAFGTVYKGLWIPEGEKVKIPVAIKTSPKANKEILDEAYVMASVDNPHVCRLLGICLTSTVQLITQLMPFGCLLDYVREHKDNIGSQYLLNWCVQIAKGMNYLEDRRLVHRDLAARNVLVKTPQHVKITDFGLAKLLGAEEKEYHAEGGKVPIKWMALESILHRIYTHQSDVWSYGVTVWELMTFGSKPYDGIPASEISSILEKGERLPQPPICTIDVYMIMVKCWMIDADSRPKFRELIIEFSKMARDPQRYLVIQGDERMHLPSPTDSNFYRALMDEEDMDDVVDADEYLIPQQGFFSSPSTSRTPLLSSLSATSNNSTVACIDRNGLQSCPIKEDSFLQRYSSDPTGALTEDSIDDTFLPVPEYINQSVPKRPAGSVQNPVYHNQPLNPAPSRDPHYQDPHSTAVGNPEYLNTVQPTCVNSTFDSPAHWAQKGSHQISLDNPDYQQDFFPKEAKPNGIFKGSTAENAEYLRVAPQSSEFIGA

[3] = target: T1, Epidermal growth factor receptor; experiment: Inhibition of wild type EGFR in human A549 cells assessed as inhibition of phosphorylation at Y1068 after 2 hrs by sandwich ELISA method; type: cell-based
Target sequence in this assay (P00533 whole entry): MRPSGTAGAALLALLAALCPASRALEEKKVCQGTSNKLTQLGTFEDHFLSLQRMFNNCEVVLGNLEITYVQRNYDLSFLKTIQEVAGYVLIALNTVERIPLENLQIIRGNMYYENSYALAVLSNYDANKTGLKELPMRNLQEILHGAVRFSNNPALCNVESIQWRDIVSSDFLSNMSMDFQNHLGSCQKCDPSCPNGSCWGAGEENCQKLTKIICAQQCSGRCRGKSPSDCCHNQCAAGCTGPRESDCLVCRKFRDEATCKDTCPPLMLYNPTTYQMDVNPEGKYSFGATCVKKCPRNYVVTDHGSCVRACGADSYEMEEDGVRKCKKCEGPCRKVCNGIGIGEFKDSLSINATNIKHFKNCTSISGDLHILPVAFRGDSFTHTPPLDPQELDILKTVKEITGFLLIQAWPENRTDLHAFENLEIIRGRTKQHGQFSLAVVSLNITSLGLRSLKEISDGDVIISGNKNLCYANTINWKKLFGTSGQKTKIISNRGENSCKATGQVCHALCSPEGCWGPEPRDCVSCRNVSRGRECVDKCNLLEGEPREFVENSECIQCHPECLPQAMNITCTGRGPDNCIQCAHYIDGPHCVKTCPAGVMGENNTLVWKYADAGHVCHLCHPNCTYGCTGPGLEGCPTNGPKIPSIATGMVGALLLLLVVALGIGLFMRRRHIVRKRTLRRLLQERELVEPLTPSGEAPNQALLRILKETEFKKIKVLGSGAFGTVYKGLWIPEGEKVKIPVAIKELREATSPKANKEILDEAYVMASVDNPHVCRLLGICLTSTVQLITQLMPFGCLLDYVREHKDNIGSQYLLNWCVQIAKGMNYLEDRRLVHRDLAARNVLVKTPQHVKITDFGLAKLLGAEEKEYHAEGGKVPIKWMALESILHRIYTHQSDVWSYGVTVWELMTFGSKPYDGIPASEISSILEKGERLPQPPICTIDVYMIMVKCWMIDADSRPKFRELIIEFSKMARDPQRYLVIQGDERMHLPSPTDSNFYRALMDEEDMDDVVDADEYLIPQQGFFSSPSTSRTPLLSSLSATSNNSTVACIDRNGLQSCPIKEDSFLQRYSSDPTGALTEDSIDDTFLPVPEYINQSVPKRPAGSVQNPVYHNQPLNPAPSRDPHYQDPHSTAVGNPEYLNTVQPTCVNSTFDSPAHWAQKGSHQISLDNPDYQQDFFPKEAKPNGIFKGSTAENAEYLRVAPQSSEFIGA

| IC50 [1] [nM] | IC50 [2] [nM] | IC50 [3] [nM] | SMILES |
| --- | --- | --- | --- |
| 18 | 8 |  | C=CC(=O)N1C[C@@H]2CN(c3nc(Nc4ccc(N5CCN(C)CC5)cc4)c4ncn(C(C)C)c4n3)C[C@@H]2C1 |
| 2130 | 6650 | 10000 | C=CC(=O)N[C@@H]1CN(c2nc(Nc3cn(C)nc3C)c3ncn(C(C)C)c3n2)C[C@H]1F |
|  | 31 |  | C=CC(=O)N[C@H]1CCN(c2nc(Nc3ccc(N4CCN(C)CC4)cc3)c3ncn(CCO)c3n2)C1 |
| 1 | 6 |  | C=CC(=O)N[C@@H]1CN(c2nc(Nc3cn(CC)nc3OC)c3ncn(C)c3n2)C[C@H]1F |

From ChEMBL document CHEMBL3608213, “Inhibitors of the Epidermal Growth Factor Receptor (EGFR) May Provide Effective Treatment for Lung Adenocarcinoma” (ACS Med Chem Lett, 2015)
